pEC50: −log10 of the molar value. Read-outs that look alike come from different tables or passages of the source.
Experiments:
[1] = molecular target: T1, LRH-1 (Homo sapiens, UniProt O00482); test: Luciferase reporter assay (SHP-luc) in HeLa cells transfected with full-length LRH-1; assay type: cell-based; details: for Relative Efficacy: fold increase over baseline (DMSO-treated cells) relative to the fold increase induced by RJW100; for pEC50 / EC50 (μM): HeLa cells, SHP-luc reporter, 24 hours, 0.03-30 μM; for LRH-1 activation: WT LRH-1
T1 construct: The transfected plasmids included full-length LRH-1 in a pCI vector; expressed in transfected cells; host or cells: HeLa
T1 sequence (O00482 whole entry): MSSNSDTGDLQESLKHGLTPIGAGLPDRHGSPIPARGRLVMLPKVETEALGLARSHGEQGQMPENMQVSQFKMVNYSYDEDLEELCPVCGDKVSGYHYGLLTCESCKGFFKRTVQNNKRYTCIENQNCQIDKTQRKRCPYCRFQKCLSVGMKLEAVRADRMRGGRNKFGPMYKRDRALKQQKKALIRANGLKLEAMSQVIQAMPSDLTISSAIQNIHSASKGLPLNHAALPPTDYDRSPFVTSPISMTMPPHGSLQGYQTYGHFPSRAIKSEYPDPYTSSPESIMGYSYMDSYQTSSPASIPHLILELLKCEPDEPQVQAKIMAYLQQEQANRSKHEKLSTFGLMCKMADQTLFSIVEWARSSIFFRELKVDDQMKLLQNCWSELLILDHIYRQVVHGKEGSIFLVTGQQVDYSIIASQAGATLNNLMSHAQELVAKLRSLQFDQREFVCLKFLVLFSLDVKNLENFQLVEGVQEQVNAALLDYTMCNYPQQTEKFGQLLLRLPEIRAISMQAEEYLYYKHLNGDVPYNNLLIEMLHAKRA
Experimental: EC50 and Relative Activity values were calculated from luciferase reporter assays.

[2] = molecular target: T2, LRH-1 LBD (Homo sapiens, UniProt O00482); test: Thermofluor (DSF) assay, purified LRH-1 LBD-His protein; assay type: binding; details: for ΔTm at 50 µM: read-out: ΔTm (mean +/− SEM) (° C.); for stabilization of LRH-1-ligand complex / Tm shift: WT LRH-1
T2 construct: LRH-1 LBD (residues 299-541) in the pMSC7 vector was expressed in BL21 (DE3) pLysS E. coli; made in house; host or cells: E. coli BL21 (DE3) pLysS
T2 sequence (O00482 299-541): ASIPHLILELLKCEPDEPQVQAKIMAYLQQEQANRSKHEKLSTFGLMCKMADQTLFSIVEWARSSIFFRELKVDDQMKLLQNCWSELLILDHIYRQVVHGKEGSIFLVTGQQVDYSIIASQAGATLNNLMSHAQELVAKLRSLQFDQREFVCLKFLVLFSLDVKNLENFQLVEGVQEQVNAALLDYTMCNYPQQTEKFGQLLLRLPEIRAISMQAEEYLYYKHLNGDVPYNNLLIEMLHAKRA
Experimental: Thermofluor assays—Purified LRH-1 LBD-His protein (0.2 mg/ml) was incubated overnight with 50 μM of each compound at 4° C. The final DMSO concentration in the reactions was 1%. SYPRO orange dye (Invitrogen) was then added at a 1:1000 dilution. Reactions were heated at a rate of 0.5° C. per minute, using a StepOne Plus Real Time PCR System (ThermoFisher). […] Data were analyzed by first subtracting baseline fluorescence (ligands+SYPRO with no protein) and then fitting the curves using the Bolzman equation (GraphPad Prism, v6) to determine the Tm. […]

[3] = 50 μM compound, relative to DLPC-bound LRH-1

Compound | Relative Efficacy [1] | pEC50 [1] | ΔTm at 50 µM [2, 3] [°C] | also measured
C=C(c1ccccc1)[C@@]12CCC(O)C1CC(CCCCCCCCOP(=O)(OCC)OCC)=C2c1ccccc1 (stereo partly drawn) [Compound 53-endo, (Endo or Exo) diethyl (8-(6-hydroxy-3-phenyl-3a-(1-phenylvinyl)-1,3a,4,5,6,6a-hexahydropentalen-2-yl)octyl)phosphate] | 1.04 |  |  | ΔTm at 50 µM [2]: < 1 °C
C=C(c1ccccc1)C12CCC(O)C1CC(CCCCCCCCCO)=C2c1ccccc1 (stereo not drawn) [Compound 10e, Exo-5-(9-hydroxynonyl)-4-phenyl-3a-(1-phenylvinyl)-1,2,3,3a,6,6a-hexahydropentalen-1-ol] | 1.30 | 6.00 | 4.1 | 
C=C(c1ccccc1)[C@@]12CC[C@@H](O)C1CC(CCCCCCCCOC(C)=O)=C2c1ccccc1 (stereo partly drawn) [Compound 47-endo, (Exo or Endo) 8-(6-hydroxy-3-phenyl-3a-(1-phenylvinyl)-1,3a,4,5,6,6a-hexahydropentalen-2-yl)octyl acetate] | 1.48 |  |  | ΔTm (mean +/− SEM) (° C.) ([2]; 50 μM compound, relative to DLPC-bound LRH-1, 50 µM): ns (Ns = Tm changes were less than 1° C.)
((((endo or exo)-5-hexyl-4-phenyl-3a-(1-phenylvinyl)-1, 2, 3, 3a, 6,6a-hexahydropentalen-1-yl)oxy)carbonyl)sulfamic acid [Compound 40-endo] | −0.2 | < 4.52 |  | LRH-1 activation [1]: increased activation of LRH-1 compared to RJW100; ΔTm (mean +/− SEM) (° C.) [2, 3]: 1.95 +/− 0.15 °C; stabilization of LRH-1-ligand complex / Tm shift [2]: greatly stabilized the protein-ligand complex
C=C(c1ccccc1)[C@@]12CC[C@@H](O)C1CC(CCCCCC)=C2c1cc(N)ccc1C (mixture of isomers) [Compound 17g, (Exo)-4-(5-amino-2-methylphenyl)-5-hexyl-3a-(1-phenylvinyl)-1,2,3,3a,6,6a-hexahydropentalen-1-ol] | 2.7 | < 4.52 | < 1 | 
C=C(c1ccccc1)C12CCC(OS(=O)(=O)NC(N)=O)C1CC(CCCCCC)=C2c1ccccc1 (stereo not drawn) [Compound 50-endo, (Endo or Exo)-5-hexyl-4-phenyl-3a-(1-phenylvinyl)-1,2,3,3a,6,6a-hexahydropentalen-1-yl carbamoylsulfamate] |  |  |  | LRH-1 activation [1]: comparable or slightly higher LRH-1 activation; stabilization of LRH-1-ligand complex / Tm shift [2]: greatly stabilized the LRH-1-ligand complex
CCCCCCC1=C(c2ccccc2)[C@]2(C(C)c3ccccc3)CC[C@H](O)C2C1 (stereo partly drawn) [Compound 39-endo, (Endo or Exo)-5-hexyl-4-phenyl-3a-(1-phenylethyl)-1,2,3,3a,6,6a-hexahydropentalen-1-ol] | 0.13 |  | 0.4 | 
C=C(c1ccccc1)[C@@]12CC[C@@H](NC(C)=O)C1CC(CCCCCC)=C2c1ccccc1 (stereo partly drawn) [Compound 35-exo, N-((endo or exo)-5-hexyl-4-phenyl-3a-(1-phenylvinyl)-1,2,3,3a,6,6a-hexahydropentalen-1-yl) acetamide] |  | 4.77 | -1.1 | 
CCCCCCC1=C(c2ccccc2)[C@]2(C(C)c3ccccc3)CC[C@@H](O)C2C1 (stereo partly drawn) [Compound 39-exo, (Endo or Exo)-5-hexyl-4-phenyl-3a-(1-phenylethyl)-1,2,3,3a,6,6a-hexahydropentalen-1-ol] | 0.06 |  | 0.1 | 
C=C(c1ccccc1)[C@@]12CC[C@@H](O)[C@@H]1CC(CCCCCC(=O)O)=C2c1ccccc1 (relative stereo) [Compound 7f, 6-(6-exo-hydroxy-3-phenyl-3a-(1-phenylvinyl)-1,3a,4,5,6,6a-hexahydropentalen-2-yl)hexanoic acid] | 2.22 | 5.05 | 5.5 | 
C=C(c1ccccc1)[C@@]12CC[C@@H](O)C1CC(CCCCCC)=C2c1cc(N)cc(F)c1 (mixture of isomers) [Compound 18g, (Exo)-4-(3-amino-5-fluorophenyl)-5-hexyl-3a-(1-phenylvinyl)-1,2,3,3a,6,6a-hexahydropentalen-1-ol] | 0.99 |  | 1.5 | EC50 (μM) [1]: cnc
C=C(c1ccccc1)C12CCC(O)C1CC(CCCCCOP(=O)([O-])OCC[N+](C)(C)C)=C2c1ccccc1 (stereo not drawn) [Compound 6g, 5-(6-exo-hydroxy-3-phenyl-3a-(1-phenylvinyl)-1,3a,4,5,6,6a-hexahydropentalen-2-yl)pentyl (2-(trimethylammonio)ethyl) phosphate] | 0.00 |  | < 1 | EC50 (μM) [1]: cnc
C=C(c1ccccc1)C12CC[C@@H](O)C1CC(CCCCCC)=C2c1cccc(O)c1 (mixture of isomers) [Compound 15f, (Exo)-5-hexyl-4-(3-hydroxyphenyl)-3a-(1-phenylvinyl)-1,2,3,3a,6,6a-hexahydropentalen-1-ol] | 0.85 |  | 1.4 | EC50 (μM) [1]: cnc
C=C(c1ccccc1)[C@@]12CC[C@@H](O)C1CC(CCCCCC)=C2c1cccc(N)c1 (mixture of isomers) [Compound 15g, (Exo)-4-(3-aminophenyl)-5-hexyl-3a-(1-phenylvinyl)-1,2,3,3a,6,6a-hexahydropentalen-1-ol] | 0.70 |  | < 1 | EC50 (μM) [1]: cnc
C=C(c1ccccc1)[C@@]12CC[C@@H](OC(N)=O)C1CC(CCCCCC)=C2c1ccccc1 (stereo partly drawn) [Compound 29-exo, (Endo or Exo)-5-hexyl-4-phenyl-3a-(1-phenylvinyl)-1,2,3,3a,6,6a-hexahydropentalen-1-yl carbamate] | 0.14 |  | 1.54 | EC50 (μM) [1]: cnc
C=C(c1ccccc1)[C@@]12CC[C@@H](O)[C@@H]1CC(CCCCCCCCC(=O)O)=C2c1ccccc1 (relative stereo) [Compound 10f, 9-(6-exo-hydroxy-3-phenyl-3a-(1-phenylvinyl)-1,3a,4,5,6,6a-hexahydropentalen-2-yl)nonanoic acid] | 3.39 | 5.74 | 3 | 
C=C(c1ccccc1)[C@@]12CC[C@H](OS(C)(=O)=O)C1CC(CCCCCC)=C2c1ccccc1 (stereo partly drawn) [Compound 30-endo, (Endo or Exo) 5-hexyl-4-phenyl-3a-(1-phenylvinyl)-1,2,3,3a,6,6a-hexahydropentalen-1-yl methanesulfonate] | 0.72 | 6.30 | 3 | 
C=C(c1ccccc1)[C@@]12CC[C@@H](O)[C@@H]1CC(CCCCCCC(=O)O)=C2c1ccccc1 (relative stereo) [Compound 8f, 7-(6-exo-hydroxy-3-phenyl-3a-(1-phenylvinyl)-1,3a,4,5,6,6a-hexahydropentalen-2-yl)heptanoic acid] | 1.17 | 5.40 | 3.7 | 
C=C(c1ccccc1)[C@@]12CC[C@@H](O)C1CC(CCCCCCCCOC(C)=O)=C2c1ccccc1 (stereo partly drawn) [Compound 47-exo, (Exo or Endo) 8-(6-hydroxy-3-phenyl-3a-(1-phenylvinyl)-1,3a,4,5,6,6a-hexahydropentalen-2-yl)octyl acetate] | 3.70 | 6.15 | 1.5 | 
C=C(c1ccccc1)[C@@]12CC[C@H](OC(N)=O)C1CC(CCCCCC)=C2c1ccccc1 (stereo partly drawn) [Compound 29-endo, (Endo or Exo)-5-hexyl-4-phenyl-3a-(1-phenylvinyl)-1,2,3,3a,6,6a-hexahydropentalen-1-yl carbamate] | 0 |  | 2.8 | EC50 (μM) [1]: cnc
C=C(c1ccccc1)[C@@]12CC[C@@H](O)C1CC(CCCCCC)=C2c1cc(O)cc(F)c1 (mixture of isomers) [Compound 18f, (Exo)-4-(3-fluoro-5-hydroxyphenyl)-5-hexyl-3a-(1-phenylvinyl)-1,2,3,3a,6,6a-hexahydropentalen-1-ol] | 2.8 | < 4.52 | < 1 | 
C=C(c1ccccc1)[C@@]12CCC(=O)C1CC(CCCCCC)=C2c1ccccc1 (stereo in doubt) [Compound 27, 5-hexyl-4-phenyl-3a-(1-phenylvinyl)-3,3a,6,6a-tetrahydropentalen-1 (2H)-one] | −0.42 |  | < 1 | 
C=C(c1ccccc1)C12CCC(O)C1CC(CCCCCCCCCCO)=C2c1ccccc1 (stereo not drawn) [Compound 11e, Exo-5-(10-hydroxydecyl)-4-phenyl-3a-(1-phenylvinyl)-1,2,3,3a,6,6a-hexahydropentalen-1-ol] | 2.83 | 5.70 | < 1 | 
